Experiments:
[1] = target: T1, AlkR (Pseudomonas aeruginosa, UniProt Q9I3I7); assay: EMSA, release of AlkR from alkB2 promoter DNA; type: binding; details: AlkR 5.8 × 10^-7 M, P3 DNA fragment 5 × 10^-7 M, pH 7.5, 37 °C; not an IC50
T1 construct: gene PA1526
T1 sequence (Q9I3I7 1-219): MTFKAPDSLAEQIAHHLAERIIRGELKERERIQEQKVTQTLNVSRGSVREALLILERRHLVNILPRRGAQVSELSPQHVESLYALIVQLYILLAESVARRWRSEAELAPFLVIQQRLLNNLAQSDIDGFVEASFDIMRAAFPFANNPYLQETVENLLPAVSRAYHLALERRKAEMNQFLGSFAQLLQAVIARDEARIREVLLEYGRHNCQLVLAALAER

[2] = target: AlkR, GntR/VanR transcription regulator of Pseudomonas aeruginosa SJTD-1 (Pseudomonas aeruginosa SJTD-1); assay: SEC; size exclusion chromatography of purified recombinant AlkR; conditions not given
[3] = target: AlkR, GntR/VanR transcription regulator of Pseudomonas aeruginosa SJTD-1 (Pseudomonas aeruginosa SJTD-1); assay: cross-linking; purified recombinant AlkR treated with sulfo-EGS, detected by 8% native PAGE

stoichiometry N [2]	stoichiometry N [3]	Molecule	concentration for effective dissociation of the AlkR/DNA complex [1]
		CCCCCCCCCCCCCCCC(=O)SCCNC(=O)CCNC(=O)[C@H](O)C(C)(C)COP(=O)(O)OP(=O)(O)OC[C@H]1O[C@@H](n2cnc3c(N)ncnc32)[C@H](O)[C@@H]1OP(=O)(O)O [C16-CoA, palmitoyl coenzyme A]	~ 150 μM
2	2	AlkR, GntR/VanR transcription regulator of Pseudomonas aeruginosa SJTD-1 (natural protein)	
		CCCCCCCC/C=C\CCCCCCCC(=O)SCCNC(=O)CCNC(=O)[C@H](O)C(C)(C)COP(=O)(O)OP(=O)(O)OC[C@H]1O[C@@H](n2cnc3c(N)ncnc32)[C@H](O)[C@@H]1OP(=O)(O)O [C18-CoA, oleyl coenzyme A]	~ 80 μM
